Here are results for 22 molecules from patent US11198699B2 (ALIGOS THERAPEUTICS, INC., priority 2019, dated 2021).

Where only a bound is given, the exact number is not on record here.

One experiment addresses PRMT5/MEP50 (Homo sapiens (Human), UniProt O14744). In words: PRMT5/MEP50 enzyme inhibition assay, Assay 2 (384-well, MALDI mass spectrometry, histone H4 1-21 peptide). Conditions: 1 μM SAM, 0.1 μM histone H4 1-21 peptide, 18-hour incubation at rt. The class given is biochemical. As to the method: Compounds were tested for inhibition of methyltransferase activity in 384-well plate assay format using mass spectrometry technology. In this enzyme inhibition assay, compounds were tested in a 11-dose IC50 mode with 3-serial dilution, in duplicate, starting at 1, 10, or 100 μM. Reactions were carried out at 1 μM SAM and 0.1 μM histone H4 1-21 peptide as substrates for methyl transfer. Following an 18-hour incubation at rt, the reaction was stopped with 0.5% formic acid. Products of the reaction were captured while unreacted substrates were washed away, prior to MALDI mass spectrometry detection and analysis. Percent enzyme activity was calculated based on no inhibitor DMSO control as 100% activity. EC50 values were determined in GraphPad Prism 8 using the [inhibitor] vs. response—Variable slope (four parameters) function.
Compounds of Formula (I) show activity in this assay. A value of ‘A’ in the table below indicates an IC50 of <1 nM, a value of ‘B’ indicates an IC50≥1 nM to ≤100 nM, and a value of ‘C’ indicates an IC50 value of >100 nM.

A further experiment concerns HepG2 hepatoma cells. In words: Cell proliferation assay, HepG2 (CellTiter-Glo, 7 days). The class given is cell-based. Conditions: HepG2, 7 days, CellTiter-Glo 2.0. As to the method: (§1) HepG2 hepatoma cells (ATCC, HB-8065) were maintained in DMEM with high glucose (Lonza, 12-914F) supplemented with 10% fetal bovine serum (FBS; Biowest, S181B-500) and 2 mM L-glutamine (Biowest, X0551-100) at 37° C. and 5% CO2. A549 lung carcinoma cells (ATCC, CCL-185) were maintained in F-12K medium (ThermoFisher 21127030) supplemented with 10% FBS at 37° C. and 5% CO2. Exponentially growing HepG2 or A549 were plated in white, clear-bottom 96-well plates (Corning, 3903) at a cell density of 2000 (HepG2) or 350 (A549) cells per well in 199 μL of HepG2 medium. Next, 1 μL of a 5-fold 9-point dilution series of test compound in DMSO was added to the different wells. Cells were incubated at 37° C. 5% CO2 for 7 days. Cell viability was assessed on day 7 with the CellTiter-Glo 2.0 Cell Viability assay kit (Promega, G9243) to quantify the intracellular amounts of ATP: first, 100 μL of cell culture medium was removed from each well, next 100 μL of CellTiter-Glo® 2.0 Reagent was added and plates were shaken for 2 minutes on an orbital shaker. After 10 minutes stabilization at room temperature, read-out was performed on a ThermoFisher VarioSkan Lux plate reader. Counts were normalized to DMSO control (0% inhibition) and the cytotoxic control (100% inhibition) and EC50 values were determined in GraphPad Prism 8 using the [Agonist] vs. response—Variable slope (four parameters) function.
(§2) As shown by the data of Table 2, compounds of Formula (I) have activity in this assay. A value of ‘A’ in the table below indicates an EC50 of <20 nM, a value of ‘B’ indicates an EC50≥20 nM to <100 nM, a value of ‘C’ indicates an EC50 value of EC50≥100 nM to <1000 nM and a value of ‘D’ indicates an EC50≥1000 nM
Background: In ATP-based viability assays light output follows the ATP content of the culture.

In experiment [1] the test system is A549 lung carcinoma cells. In words: Cell proliferation assay, A549 (CellTiter-Glo, 7 days). Conditions: A549, 7 days, CellTiter-Glo 2.0. Format: cell-based. As to the method: as §1, §2

PRMT5/MEP50, sequence (O14744 whole entry): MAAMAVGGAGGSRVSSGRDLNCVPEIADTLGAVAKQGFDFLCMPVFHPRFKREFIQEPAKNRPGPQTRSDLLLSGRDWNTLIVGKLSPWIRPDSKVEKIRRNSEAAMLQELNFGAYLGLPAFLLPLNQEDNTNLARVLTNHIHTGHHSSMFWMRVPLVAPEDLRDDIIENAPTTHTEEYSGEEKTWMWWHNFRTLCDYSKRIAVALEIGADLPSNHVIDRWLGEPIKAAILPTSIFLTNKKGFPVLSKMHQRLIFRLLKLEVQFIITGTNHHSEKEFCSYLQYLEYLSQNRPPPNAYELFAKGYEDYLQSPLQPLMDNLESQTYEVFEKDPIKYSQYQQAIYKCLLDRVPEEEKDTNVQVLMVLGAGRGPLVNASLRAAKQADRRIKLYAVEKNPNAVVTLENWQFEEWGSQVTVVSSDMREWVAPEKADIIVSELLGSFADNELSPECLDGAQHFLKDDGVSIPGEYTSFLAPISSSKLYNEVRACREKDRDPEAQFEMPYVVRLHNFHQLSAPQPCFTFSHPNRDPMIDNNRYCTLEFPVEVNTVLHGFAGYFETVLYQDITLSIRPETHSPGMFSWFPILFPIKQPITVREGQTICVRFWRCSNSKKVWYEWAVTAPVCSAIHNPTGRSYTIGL
PRMT5/MEP50, sequence (Q9BQA1 whole entry partner): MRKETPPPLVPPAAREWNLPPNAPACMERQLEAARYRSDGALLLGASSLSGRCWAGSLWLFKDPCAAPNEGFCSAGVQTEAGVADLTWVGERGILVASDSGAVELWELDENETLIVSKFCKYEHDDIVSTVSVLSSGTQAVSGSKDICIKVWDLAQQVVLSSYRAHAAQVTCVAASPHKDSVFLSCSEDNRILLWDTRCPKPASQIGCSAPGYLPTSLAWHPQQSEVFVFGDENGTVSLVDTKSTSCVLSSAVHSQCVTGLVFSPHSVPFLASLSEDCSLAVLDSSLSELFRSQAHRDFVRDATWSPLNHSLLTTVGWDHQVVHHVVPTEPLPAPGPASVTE

With `C[C@]1(CCc2ccc3ccc(N)nc3c2)C[C@@H](n2ccc3c(N)nccc32)[C@H](O)[C@@H]1O` [Compound 38, (1S,2R,3S,5R)-5-(4-amino-1H-pyrrolo[3,2-c]pyridin-1-yl)-3-(2-(2-aminoquinolin-7-yl)ethyl)-3-methylcyclopentane-1,2-diol], at PRMT5/MEP50, the IC50 (in general, the concentration needed to halve the response being measured) was less than 1 nM. For the same molecule, the half-maximal effective concentration (EC50) (in general, the concentration needed to bring the measured effect to its halfway point) is less than 20 nM in the experiment on HepG2 hepatoma cells (Homo sapiens, 168 h) and less than 20 nM in experiment [1] (Homo sapiens, A549, 168 h).

Regarding `CC(C)C(=O)O[C@H]1[C@H](n2ccc3c(N)ncnc32)[C@H]2C[C@@]2(CCc2ccc3nc(N)ccc3c2)[C@H]1OC(=O)C(C)C` [Compound 25-A, (1R,2R,3S,4R,5S)-4-(4-amino-7H-pyrrolo[2,3-d]pyrimidin-7-yl)-1-(2-(2-aminoquinolin-6-yl)ethyl)bicyclo[3.1.0]hexane-2,3-diyl bis(2-methylpropanoate)], the IC50 at PRMT5/MEP50 was more than 100 nM. Besides, the concentration for a half-maximal effect (EC50) was not below 1000 nM in the experiment with HepG2 hepatoma cells (Homo sapiens, 168 h) and not below 1000 nM in experiment [1] (Homo sapiens, A549, 168 h).

On PRMT5/MEP50, `CC(C)C(=O)O[C@H]1[C@H](n2ccc3c(N)ncnc32)C[C@](C)(CCc2ccc3nc(N)ccc3c2)[C@H]1OC(=O)C(C)C` [Compound 26-A] showed an IC50 of more than 100 nM. For the same molecule, the EC50 (in the experiment on HepG2 hepatoma cells; in experiment [1]) was not below 1000 nM throughout.

The molecule `CCCCCOC(=O)Nc1ccc2cc(CC[C@@]3(C)C[C@@H](n4ccc5c(N)ncnc54)[C@H](O)[C@@H]3O)ccc2n1` [Compound 20-A] displayed an IC50 against PRMT5/MEP50 of more than 100 nM. In addition, the concentration for a half-maximal effect (EC50) in the experiment with HepG2 hepatoma cells (Homo sapiens, 168 h) lay within 100 to 1000 nM; in experiment [1] (Homo sapiens, A549, 168 h) it was 100 to 1000 nM.

As to `C=C[C@]1(CCc2cc(F)c3cc(Cl)c(N)nc3c2)C[C@@H](n2ccc3c(N)ncnc32)[C@H](O)[C@@H]1O` [Compound 51], the half-inhibitory concentration (IC50) on PRMT5/MEP50 is less than 1 nM. Also, the EC50 in the experiment with HepG2 hepatoma cells (Homo sapiens, 168 h) was less than 20 nM; in experiment [1] (Homo sapiens, A549, 168 h) it was less than 20 nM.

Turning to `Nc1ccc2ccc(CC[C@@]3(F)C[C@@H](n4ccc5c(N)ncnc54)[C@H](O)[C@@H]3O)cc2n1` [Compound 35, (1S,2S,3R,5R)-5-(4-amino-7H-pyrrolo[2,3-d]pyrimidin-7-yl)-3-(2-(2-aminoquinolin-7-yl)ethyl)-3-fluorocyclopentane-1,2-diol], the EC50 in the experiment with HepG2 hepatoma cells (Homo sapiens, 168 h) is less than 20 nM; in experiment [1] (Homo sapiens, A549, 168 h) it was less than 20 nM.

`C[C@]1(CCc2ccc3cc(C(F)F)c(N)nc3c2)C[C@@H](n2ccc3c(N)ncnc32)[C@H](O)[C@@H]1O` [Compound 23]: at PRMT5/MEP50, the IC50 was less than 1 nM. The EC50 (in the experiment with HepG2 hepatoma cells; in experiment [1]) was less than 20 nM each time.

As for `Nc1ccc2ccc(CC[C@@]34CC3[C@@H](n3ccc5c(N)ncnc53)[C@H](O)[C@@H]4O)nc2n1` (stereo partly drawn) [Compound 22, (1R,2R,3S,4R)-1-[2-(7-amino-1,8-naphthyridin-2-yl)ethyl]-4-(4-aminopyrrolo[2,3-d]pyrimidin-7-yl)bicyclo[3.1.0]hexane-2,3-diol], the half-inhibitory concentration (IC50) at PRMT5/MEP50 was less than 1 nM. Moreover, the half-maximal effective concentration (EC50) in the experiment with HepG2 hepatoma cells (Homo sapiens, 168 h) lay within 100 to 1000 nM; in experiment [1] (Homo sapiens, A549, 168 h), 100 to 1000 nM.

On to `Nc1nc2cc(CC[C@@]3(CO)C[C@@H](n4ccc5c(N)ncnc54)[C@H](O)[C@@H]3O)cc(F)c2cc1Cl` [Compound 40, (1S,2R,3S,5R)-3-(2-(2-amino-3-chloro-5-fluoroquinolin-7-yl)ethyl)-5-(4-amino-7H-pyrrolo[2,3-d]pyrimidin-7-yl)-3-(hydroxymethyl)cyclopentane-1,2-diol], for which the IC50 against PRMT5/MEP50 is less than 1 nM. In addition, the EC50 in the experiment on HepG2 hepatoma cells (Homo sapiens, 168 h) was less than 20 nM; in experiment [1] (Homo sapiens, A549, 168 h) it was less than 20 nM.

`Nc1nc2cc(OC[C@@H]3[C@@H](O)[C@@H](O)C4(n5ccc6c(N)ncnc65)C[C@@H]34)ccc2cc1Br` (mixture of isomers) [Compound 17, rac-(2S,3R,4R,5S)-4-[(2-amino-3-bromo-7-quinolyl)oxymethyl]-1-(4-aminopyrrolo[2,3-d]pyrimidin-7-yl)bicyclo[3.1.0]hexane-2,3-diol]: the concentration for half-maximal inhibition (IC50) against PRMT5/MEP50 was more than 100 nM. Further, the EC50 in the experiment on HepG2 hepatoma cells (Homo sapiens, 168 h) was not below 1000 nM; in experiment [1] (Homo sapiens, A549, 168 h), not below 1000 nM.

`N#C[C@]1(CCc2cc(F)c3cc(Cl)c(N)nc3c2)C[C@@H](n2ccc3c(N)ncnc32)[C@H](O)[C@@H]1O` [Compound 44, (1S,2R,3S,4R)-1-(2-(2-amino-3-chloro-5-fluoroquinolin-7-yl)ethyl)-4-(4-amino-7H-pyrrolo[2,3-d]pyrimidin-7-yl)-2,3-dihydroxycyclopentane-1-carbonitrile] had an IC50 against PRMT5/MEP50 of less than 1 nM. In addition, the EC50 was 100 to 1000 nM in the experiment on HepG2 hepatoma cells (Homo sapiens, 168 h) and 20 to 100 nM in experiment [1] (Homo sapiens, A549, 168 h).

In the case of `C[C@]1(CCc2ccc3cc(Br)c(N)nc3c2)C[C@@H](n2ccc3c(N)nc(Cl)nc32)[C@H](O)[C@@H]1O` [Compound 54], at PRMT5/MEP50, the IC50 was less than 1 nM. The 50% effective concentration (EC50) in the experiment with HepG2 hepatoma cells (Homo sapiens, 168 h) was less than 20 nM; in experiment [1] (Homo sapiens, A549, 168 h) it was less than 20 nM.

In turn, `C[C@]1(CCc2ccc3cc(Cl)c(N)nc3c2)C[C@@H](n2ccc3c(N)ncnc32)[C@H](O)[C@]1(C)O` [Compound 28] showed a concentration for half-maximal inhibition (IC50) on PRMT5/MEP50 of less than 1 nM. Moreover, the 50% effective concentration (EC50) in the experiment with HepG2 hepatoma cells fell in the range of 20 to 100 nM; in experiment [1], 100 to 1000 nM.

In turn, `C[C@]1(CCCCc2cccc(N)n2)C[C@@H](n2ccc3c(N)ncnc32)[C@H](O)[C@@H]1O` [Compound 47] yielded a 50% inhibitory concentration (IC50) against PRMT5/MEP50 of less than 1 nM. Also, the concentration for a half-maximal effect (EC50) was in the range of 100 to 1000 nM with HepG2 hepatoma cells (Homo sapiens, 168 h) and 20 to 100 nM in experiment [1] (Homo sapiens, A549, 168 h).

`CC(C)C(=O)O[C@H]1[C@H](n2ccc3c(N)ncnc32)C[C@](C)(CCc2ccc3ccc(N)nc3c2)[C@H]1OC(=O)C(C)C` [Compound 26, (1S,2R,3S,5R)-5-(4-amino-7H-pyrrolo[2,3-d]pyrimidin-7-yl)-3-(2-(2-aminoquinolin-7-yl)ethyl)-3-methylcyclopentane-1,2-diyl bis(2-methylpropanoate)] yielded an IC50 at PRMT5/MEP50 of more than 100 nM. Also, the EC50 lay in the range of 20 to 100 nM in the experiment on HepG2 hepatoma cells (Homo sapiens, 168 h) and 100 to 1000 nM in experiment [1] (Homo sapiens, A549, 168 h).

Turning to `C[C@]1(CCc2ccc3cc(Cl)c(N)nc3c2)C[C@@H](n2ccc3c(N)ncnc32)[C@H](O)[C@@H]1O` [Compound 18], the IC50 against PRMT5/MEP50 is less than 1 nM. Further, the EC50 (in the experiment with HepG2 hepatoma cells; in experiment [1]) was less than 20 nM each time.

In the case of `C[C@]1(CCc2cc(F)c3cc(Cl)c(N)nc3c2)C[C@@H](c2ccc3c(N)ncnn23)[C@H](O)[C@@H]1O` [Compound 57], the IC50 against PRMT5/MEP50 is less than 1 nM.

With `Cc1ncnc2c1ccn2[C@@H]1C[C@](C)(CCc2cc(F)c3cc(Cl)c(N)nc3c2)[C@@H](O)[C@H]1O` [Compound 32, (1S,2R,3S,5R)-3-(2-(2-amino-3-chloro-5-fluoroquinolin-7-yl)ethyl)-3-methyl-5-(4-methyl-7H-pyrrolo[2,3-d]pyrimidin-7-yl)cyclopentane-1,2-diol], the EC50 in the experiment with HepG2 hepatoma cells (Homo sapiens, 168 h) was less than 20 nM; in experiment [1] (Homo sapiens, A549, 168 h), less than 20 nM.

In the case of `CCCCCOC(=O)Nc1nc2cc(CC[C@@]3(C)C[C@@H](n4ccc5c(N)ncnc54)[C@H](O)[C@@H]3O)ccc2cc1Cl` [Compound 33, pentyl (7-(2-((1S,2R,3S,4R)-4-(4-amino-7H-pyrrolo[2,3-d]pyrimidin-7-yl)-2,3-dihydroxy-1-methylcyclopentyl)ethyl)-3-chloroquinolin-2-yl)carbamate], the concentration giving a half-maximal response (EC50) was less than 20 nM with HepG2 hepatoma cells (Homo sapiens, 168 h) and less than 20 nM in experiment [1] (Homo sapiens, A549, 168 h).

`COC[C@]1(CCc2ccc3cc(Br)c(N)nc3c2)C[C@@H](n2ccc3c(N)ncnc32)[C@H](O)[C@@H]1O` [Compound 58] yielded a half-maximal inhibitory concentration (IC50) against PRMT5/MEP50 of less than 1 nM.

Consider `C[C@]1(CCc2ccc3cc(Br)c(N)nc3c2)C[C@@H](n2ccc3c(N)ncnc32)[C@H](O)[C@@H]1O` [Compound 1], for which the EC50 in the experiment with HepG2 hepatoma cells (Homo sapiens, 168 h) was less than 20 nM; in experiment [1] (Homo sapiens, A549, 168 h), less than 20 nM.

As to `C[C@]1(CCc2cc(F)c3cc(Cl)c(N)nc3c2)C[C@@H](n2ccc3c(N)ncc(F)c32)[C@H](O)[C@@H]1O` [Compound 34, (1S,2R,3S,5R)-3-[2-(2-amino-3-chloro-5-fluoro-7-quinolyl)ethyl]-5-(4-amino-7-fluoro-pyrrolo[3,2-c]pyridin-1-yl)-3-methyl-cyclopentane-1,2-diol], the EC50 with HepG2 hepatoma cells (Homo sapiens, 168 h) is less than 20 nM; in experiment [1] (Homo sapiens, A549, 168 h), less than 20 nM.
